Results on 18 compounds are retold here after patent US20170334899A1, “AMINO-SUBSTITUTED ISOTHIAZOLES” (Bayer Pharma Aktiengesellschaft, priority 2014, published 2017).

A value given as a limit tells only on which side of the number the result lay.

The assay addresses T1, human kinase Mps-1 (Homo sapiens, UniProt P33981).
T1 construct: N-terminally GST-tagged human full length recombinant Mps-1 kinase; GST (N); purchased Invitrogen, Karslruhe, Germany PV4071
T1 sequence (P33981 1-857): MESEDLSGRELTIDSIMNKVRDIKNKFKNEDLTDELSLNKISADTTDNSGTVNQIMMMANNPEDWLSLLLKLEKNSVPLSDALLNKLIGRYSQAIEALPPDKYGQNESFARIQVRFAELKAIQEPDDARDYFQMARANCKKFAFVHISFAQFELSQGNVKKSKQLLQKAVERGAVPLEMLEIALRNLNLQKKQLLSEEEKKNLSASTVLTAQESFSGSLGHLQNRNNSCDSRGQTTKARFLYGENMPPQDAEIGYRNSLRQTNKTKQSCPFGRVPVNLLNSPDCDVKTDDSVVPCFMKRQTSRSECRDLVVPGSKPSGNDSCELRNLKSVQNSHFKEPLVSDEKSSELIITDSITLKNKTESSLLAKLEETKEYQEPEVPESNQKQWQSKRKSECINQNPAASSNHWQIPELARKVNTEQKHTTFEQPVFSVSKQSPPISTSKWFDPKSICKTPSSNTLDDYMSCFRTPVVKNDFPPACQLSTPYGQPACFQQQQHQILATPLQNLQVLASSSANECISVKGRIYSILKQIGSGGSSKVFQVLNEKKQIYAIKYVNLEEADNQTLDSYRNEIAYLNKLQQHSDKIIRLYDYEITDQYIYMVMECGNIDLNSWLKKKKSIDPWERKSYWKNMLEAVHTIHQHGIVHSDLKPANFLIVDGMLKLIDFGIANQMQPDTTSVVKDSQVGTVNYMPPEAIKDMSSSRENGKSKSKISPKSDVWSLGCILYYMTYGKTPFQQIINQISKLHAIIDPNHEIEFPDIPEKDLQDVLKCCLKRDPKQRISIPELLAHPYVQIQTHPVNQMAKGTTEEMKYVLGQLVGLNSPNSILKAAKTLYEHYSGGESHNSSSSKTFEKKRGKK
Nature of the assay: Mps-1 kinase assay (TR-FRET). Particulars: Mps-1 TR-FRET kinase assay; avg; read-out: Mps1 avg (IC50 [mol/l]). The assay is classed as biochemical. The protocol:
The human kinase Mps-1 phosphorylates a biotinylated substrate peptide. Detection of the phosphorylated product is achieved by time-resolved fluorescence resonance energy transfer (TR-FRET) from Europium-labelled anti-phospho-Serine/Threonine antibody as donor to streptavidin labelled with cross-linked allophycocyanin (SA-XLent) as acceptor. Compounds are tested for their inhibition of the kinase activity.
N-terminally GST-tagged human full length recombinant Mps-1 kinase (purchased from Invitrogen, Karslruhe, Germany, cat. no PV4071) was used. As substrate for the kinase reaction a biotinylated peptide of the amino-acid sequence biotin-Ahx-PWDPDDADITEILG (C-terminus in amide form, purchased from Biosyntan GmbH, Berlin) was used.
For the assay 50 nl of a 100-fold concentrated solution of the test compound in DMSO was pipetted into a black low volume 384we11 microtiter plate (Greiner Bio-One, Frickenhausen, Germany), 2 μl of a solution of Mps-1 in assay buffer [0.1 mM sodium-ortho-vanadate, 10 mM MgCl2,2 mM DTT, 25 mM Hepes pH 7.7, 0.05% BSA (w/v), 0.001% Pluronic F-127] were added and the mixture was incubated for 15 min at 22° C. to allow pre-binding of the test compounds to Mps-1 before the start of the kinase reaction. Then the kinase reaction was started by the addition of 3 μl of a solution of 16.7 μM adenosine-tri-phosphate (ATP, 16.7 μM=>final conc. in the 5 μl assay volume is 10 μM) and peptide substrate (1.67 μM=>final conc. in the 5 μl assay volume is 1 μM) in assay buffer and the resulting mixture was incubated for a reaction time of 60 min at 22° C. The concentration of Mps-1 in the assay was adjusted to the activity of the enzyme lot and was chosen appropriate to have the assay in the linear range, typical enzyme concentrations were in the range of about 0.5 nM (final conc. in the 5 μl assay volume). The reaction was stopped by the addition of 5 μl of a solution of TR-FRET detection reagents (100 mM Hepes pH 7.4, 0.1% BSA, 40 mM EDTA, 140 nM Streptavidin-XLent [#61GSTXLB, Fa. Cis Biointernational, Marcoule, France], 1.5 nM anti-phospho(Ser/Thr)-Europium-antibody [#AD0180, PerkinElmer LAS, Rodgau-Jugesheinn, Germany]. Instead of the 1.5 nM anti-phospho(Ser/Thr)-Europium-antibody a mixture of 2 nM unlabeled anti-phospho ser/thr-pro antibody MPM-2 [Millipore cat. #05-368] and 1 nM LANCE EU-W1024 labeled anti-mouse IgG antibody [Perkin-Elmer, product no. AD0077] can be used).
The resulting mixture was incubated 1 h at 22° C. to allow the binding of the phosphorylated peptide to the anti-phospho(Ser/Thr)-Europium-antibody. Subsequently the amount of phosphorylated substrate was evaluated by measurement of the resonance energy transfer from the Europium-labelled anti-phospho(Ser/Thr) antibody to the Streptavidin-XLent. Therefore, the fluorescence emissions at 620 nm and 665 nm after excitation at 350 nm was measured in a Viewlux TR-FRET reader (PerkinElmer LAS, Rodgau-Jugesheinn, Germany). The “blank-corrected normalized ratio” (a Viewlux specific readout, similar to the traditional ratio of the emissions at 665 nm and at 622 nm, in which blank and Eu-donor crosstalk are subtracted from the 665 nm signal before the ratio is calculated) was taken as the measure for the amount of phosphorylated substrate. The data were normalised (enzyme reaction without inhibitor=0% inhibition, all other assay components but no enzyme=100% inhibition).

Consider `Cc1nsc(Nc2cncc(C(F)(F)F)n2)c1C(=O)Nc1ccc(C(=O)NC2CCN(CC(F)(F)F)CC2)cc1` [Example 167, 3-methyl-N-(4-{[1-(2,2,2-trifluoroethyl)piperidin-4-yl]carbamoyl}phenyl)-5-{[6-(trifluoromethyl)pyrazin-2-yl]amino}-1,2-thiazole-4-carboxamide], for which the IC50 is > 20 µM.

For `Cc1nsc(Nc2cnc(C(F)(F)F)cn2)c1C(=O)Nc1ccc(OCC2CCN(C(=O)OC(C)(C)C)C2)nc1` (stereo not drawn) [Example 109, tert-Butyl 3-{[(5-{[(3-methyl-5-{[5-(trifluoromethyl)pyrazin-2-yl]amino}-1,2-thiazol-4-yl)carbonyl]amino}pyridin-2-yl)oxy]methyl}pyrrolidine-1-carboxylate], the IC50 is ≥ 20 µM.

Regarding `Cc1nsc(Nc2cnc3ccccc3n2)c1C(=O)Nc1cccc(C(=O)N2CCCC2)c1` [Example 113, 3-Methyl-N-[3-(pyrrolidin-1-ylcarbonyl)phenyl]-5-(quinoxalin-2-ylamino)-1,2-thiazole-4-carboxamide], the IC50 was determined as 12 µM.

As for `CC(=O)N1CCC(Oc2ccc(NC(=O)c3c(C)nsc3Nc3cnc(C(F)(F)F)cn3)cn2)CC1` [Example 11, N-{6-[(1-Acetylpiperidin-4-yl)oxy]pyridin-3-yl}-3-methyl-5-{[5-(trifluoromethyl)-pyrazin-2-yl]amino}-1,2-thiazole-4-carboxamide], the IC50 was ≥ 20 µM.

Take `Cc1nsc(Nc2ccc(C#N)cn2)c1C(=O)Nc1ccc(NC2CCCN(C(=O)OC(C)(C)C)C2)nc1` (stereo not drawn) [Example 171, tert-butyt 3-({5-[({5-[(5-cyanopyridin-2-yl)amino]-3-methyl-1,2-thiazol-4-yl}carbonyl)amino]pyridin-2-yl}amino)piperidine-1-carboxylate]: the IC50 was > 20 µM.

As for `Cc1nsc(Nc2cncc(C(F)(F)F)n2)c1C(=O)Nc1ccc(OCC2CCCN(C(=O)OC(C)(C)C)C2)nc1` (stereo not drawn) [Example 166, tert-butyl 3-{[(5-{[(3-methyl-5-{[6-(trifluoromethyl)pyrazin-2-yl]amino}-1,2-thiazol-4-yl)carbonyl]amino}pyridin-2-yl)oxy]methyl}piperidine-1-carboxylate], the IC50 is > 20 µM.

With `Cc1nsc(Nc2cnc3ccccc3n2)c1C(=O)Nc1ccc(C(=O)NC2CN(C(=O)OC(C)(C)C)CC(F)(F)C2)cc1` (stereo not drawn) [Example 158, tert-butyl 3,3-difluoro-5-{[4-({[3-methyl-5-(quinoxalin-2-ylamino)-1,2-thiazol-4-yl]carbonyl}amino)benzoyl]amino} piperidine-1-carboxylate], the IC50 was > 20 µM.

As for `CC(=O)Nc1cc(NC(=O)c2c(C)nsc2Nc2ccc(C#N)cn2)ccc1F` [Example 152, N-(3-acetamido-4-fluorophenyl)-5-[(5-cyanopyridin-2-yl)amino]-3-methyl-1,2-thiazole-4-carboxamide], the IC50 was > 20 µM.

Consider `Cc1nsc(Nc2cnc(C(F)(F)F)cn2)c1C(=O)Nc1ccc(OC2CCNCC2)nc1` [Example 6, 3-Methyl-N-[6-(piperidin-4-yloxy)pyridin-3-yl]-5-{[5-(trifluoromethyl)pyrazin-2-yl]amino}-1,2-thiazole-4-carboxamide], for which the IC50 is ≥ 20 µM.

Regarding `Cc1nsc(Nc2cnc(C(F)(F)F)cn2)c1C(=O)Nc1ccc(OC2CCN(CCF)CC2)nc1` [Example 7, N-(6-{[1-(2-Fluoroethyl)piperidin-4-yl]oxy}pyridin-3-yl)-3-methyl-5-{[5-(trifluoromethyl)pyrazin-2-yl]amino}-1,2-thiazole-4-carboxamide], the IC50 is ≥ 20 µM.

Turning to `Cc1nsc(Nc2cnc(C(F)(F)F)cn2)c1C(=O)Nc1ccc(OC[C@@H]2CCN(CCC(F)(F)F)C2)nc1` [Example 129, 3-Methyl-5-{[5-(trifluoromethyl)pyrazin-2-yl]amino}-N-(6-{[(3R)-1-(3,3,3-trifluoropropyl)pyrrolidin-3-yl]methoxy}pyridin-3-yl)-1,2-thiazole-4-carboxamide], the IC50 is > 20 µM.

For the compound `Cc1nsc(Nc2cncc(C(F)(F)F)n2)c1C(=O)Nc1ccc(F)c(OC2CCN(C(=O)OC(C)(C)C)CC2)c1` [Example 168, tert-butyl 4-(2-fluoro-5-{[(3-methyl-5-{[6-(trifluoromethyl)pyrazin-2-yl]amino}-1,2-thiazol-4-yl)carbonyl]amino}phenoxy)piperidine-1-carboxylate], the IC50 is > 20 µM.

On to `Cc1nsc(Nc2cncc(C(F)(F)F)n2)c1C(=O)Nc1ccc(OCC2CCN(C(=O)OC(C)(C)C)C2)nc1` (stereo not drawn) [Example 110, tert-Butyl 3-{[(5-{[(3-methyl-5-{[6-(trifluoromethyl)pyrazin-2-yl]amino}-1,2-thiazol-4-yl)carbonyl]amino}pyridin-2-yl)oxy]methyl}pyrrolidine-1-carboxylate], for which the IC50 was ≥ 20 µM.

Turning to `Cc1nsc(Nc2cnc(C(F)(F)F)cn2)c1C(=O)Nc1ccc(OCC2CCN(CCF)C2)nc1` (stereo not drawn) [Example 121, N-(6-{[1-(2-fluoroethyl)pyrrolidin-3-yl]methoxy}pyridin-3-yl)-3-methyl-5-{[5-(trifluoromethyl)pyrazin-2-yl]amino}-1,2-thiazole-4-carboxamide], the IC50 was ≥ 20 µM.

Consider `Cc1nsc(Nc2cnc(C(F)(F)F)cn2)c1C(=O)Nc1ccc(O[C@H]2CCN(CC(F)(F)F)C[C@H]2F)nc1` [Example 145, N-(6-{[(3R,4S)-3-fluoro-1-(2,2,2-trifluoroethyl)piperidin-4-yl]oxy}pyridin-3-yl)-3-methyl-5-{[5-(trifluoromethyl)pyrazin-2-yl]amino}-1,2-thiazole-4-carboxamide], for which the IC50 is > 20 µM.

`Cc1noc(-c2cccc(NC(=O)c3c(C)nsc3Nc3cnc4ccccc4n3)c2)n1` [Example 106, 3-Methyl-N-[3-(3-methyl-1,2,4-oxadiazol-5-yl)phenyl]-5-(quinoxalin-2-ylamino)-1,2-thiazole-4-carboxamide]: the IC50 was ≥ 20 µM.

Take `Cc1nsc(Nc2cnc3ccccc3n2)c1C(=O)Nc1ccc(Oc2cccc(C(F)(F)F)c2)nc1` [Example 117, 3-Methyl-5-(quinoxalin-2-ylamino)-N-{6-[3-(trifluoromethyl)phenoxy]pyridin-3-yl}-1,2-thiazole-4-carboxamide]: the IC50 is ≥ 20 µM.

As to `Cc1nsc(Nc2cnc3ccccc3n2)c1C(=O)Nc1ccc(C(=O)N2CCCN(CC(F)(F)F)CC2)cc1` [Example 159], the IC50 was > 20 µM.
